Assay results published in patent publication US10723699B2 (Hyundai Pharm Co., Ltd., priority 2015, dated 2020).
Entries after “also recorded” stand apart in the source; their conditions may differ. Read-outs that look alike come from different tables or passages of the source.

Legend:
[1] = system: diet-induced obesity (DIO) rat model; experiment: Changes in weights in diet-induced obesity (DIO) rat model, 4-week administration; format: in vivo, Sprague Dawley (SD) rats; conditions: 300 mg/kg oral, 4 weeks
Experimental: To simultaneously evaluate both the weight-loss and hypoglycemic effects of the cyclohexene derivative according to the present invention, experiments were carried out, as follows.
(§1) Specifically, male Sprague Dawley (SD) rats (approximately 4 weeks old) in a diet-induced obesity model were fed with a high-fat diet (Lab. Diet Co.) for approximately 10 weeks to induce high-fat diet-induced obesity (DIO). The rats undergoing the high-fat diet were randomly selected, and divided into groups (n=8) for respective administrations. The compounds of Comparative Examples 3 and 4 and Examples 48 and 119 were administered to the divided DIO rats each group for 4 weeks.
(§2) The weights of the DIO rats were measured twice a week during a period of administration of 4 weeks to record a change in the weights. At the end of the 4-week period of administration, a hypoglycemic effect was evaluated using an oral glucose tolerance test (OGTT), as follows.

[2] = system: diet-induced obesity (DIO) rat model; experiment: OGTT at the end of the 4-week administration in DIO rat model; format: in vivo, Sprague Dawley (SD) rats; conditions: 300 mg/kg oral; glucose 2 g/kg 30 minutes later; after 4-week administration
Experimental: as §1, §2
Specifically, each of the compounds of Comparative Example 3 (300 mg/kg) and Examples 48 and 119 (10, 20, 50 mg/kg) was administered, and 2 g/kg of glucose was orally administered after 30 minutes of the administration. A blood glucose level was determined using an Accu-Chek Active Strip (Roche diagnostic Co.). In this case, the glucose level in blood collected via caudal venipuncture was measured at time points of −30, 0, 20, 40, 60, and 120 minutes after glucose administration. […]

[3] = system: male C57BL/6J (C57 black 6) rats in a high-fat diet model; experiment: Oral glucose tolerance test (OGTT), high-fat diet model; format: in vivo; conditions: 20 mg/kg oral, Table 3
Experimental: To evaluate in vivo effective effects of the cyclohexene derivatives according to the present invention, experiments were carried out, as follows.
Specifically, male C57BL/6J (C57 black 6) […] (8 to 10 weeks old) in a high-fat diet model were acclimated for at least 7 days, and only healthy rat populations were selected and subjected to an oral glucose tolerance test (OGTT). The rats were fasted for 12 to 15 hours, and then randomly divided into groups with five rats per group. Thereafter, each of the compounds of Examples 1, 14, 48, 69, 80, 118, 139, 147, 148, 169, 190, 199, 200, 204, 227, 277, 290, 291, 442, 443, and 461 to 466, and Comparative Examples 1 and 2 according to the present invention was administered to the rats at a dose of 20 mg/kg. In this case, a vehicle (0.5%, carboxymethyl cellulose (CMC)) was administered as an untreated group, and the dose of the compound administered together with the vehicle was orally administered at 10 ml/kg. After 30 minutes of administration, glucose (2 g/kg) was orally administered at a dose of 10 ml/kg. A blood glucose level was measured using an Accu-Chek Active Strip (Rosche Diagnostic Co.). In this case, the glucose level in blood collected via caudal venipuncture was measured at time points of −30, 0, 20, 40, 60, and 120 minutes after glucose administration. […]

CYP1A2 = molecular target: T1, CYP1A2 (Homo sapiens, UniProt P05177); experiment: CYP inhibition assay (BD GENTEST kit); format: in vitro ADME; conditions: for inhibition at 15 min, 10 µM: human, CYP1A2 enzyme/substrate mixture of BD GENTEST kit, pH 7.4, 10 μM, read-out: CYP inhibition (% at 10 μM) 1A2
T1 construct: purchased BD GENTEST 459100
T1 sequence (P05177 1-516): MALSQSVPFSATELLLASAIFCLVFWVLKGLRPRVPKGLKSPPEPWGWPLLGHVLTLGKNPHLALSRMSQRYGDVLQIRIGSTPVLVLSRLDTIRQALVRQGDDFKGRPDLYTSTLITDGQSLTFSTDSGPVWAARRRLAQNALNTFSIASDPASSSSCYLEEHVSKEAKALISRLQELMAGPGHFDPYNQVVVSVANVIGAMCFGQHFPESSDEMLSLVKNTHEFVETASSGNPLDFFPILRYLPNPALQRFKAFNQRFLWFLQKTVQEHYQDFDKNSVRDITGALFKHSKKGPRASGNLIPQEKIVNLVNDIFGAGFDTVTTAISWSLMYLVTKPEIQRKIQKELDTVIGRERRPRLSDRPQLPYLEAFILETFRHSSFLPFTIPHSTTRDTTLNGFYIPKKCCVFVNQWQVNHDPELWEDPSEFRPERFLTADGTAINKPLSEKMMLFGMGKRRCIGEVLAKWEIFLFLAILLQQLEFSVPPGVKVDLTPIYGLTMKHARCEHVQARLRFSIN
Excerpt: (§3) CYP enzymes play a major role in the metabolism of drugs. Depending on the inhibition activity of the CYP enzymes, the dose of the drugs and toxicity due to the co-administration of other drugs can be predicted. Therefore, we have measured the inhibitory activity for CYP3A4, CYP2C9, CYP1A2, CYP2D6 and CYP2C19 enzymes present in the body using the compounds of the present invention. Invitrogen P2862 kit was used for CYP2D6 inhibition assay, and BD GENTEST (459100, 459300, 459400, 459500) kits were used for CYP1A2, CYP2C9, CYP2C19 and CYP3A4 inhibition assay. In case of Invitrogen kit, the test materials were diluted in distilled water into 2.5× of the final test concentration.
(§4) In case of BD GENTEST kit, the test materials were diluted in acetonitrile into 50× of the final test concentration. NADPH-cofactor mixture containing cofactor, G6PDH and control protein was prepared in distilled water as per manufacturer's instruction. 4 μl of 50× test materials and 96 μl of NADPH-cofactor mixture were mixed in U-bottom 96-well plate, and the resulting mixture were pre-incubated at 37° C. for 10 minutes. Predetermined concentrations of enzyme/substrate mixture were prepared in distilled water using buffer (0.5M potassium phosphate, pH 7.4) and each of CYP450 enzyme/substrate mixture provided in the kit for the types of CYP450. To the pre-incubated plate, 100 μl of enzyme/substrate mixture was added, and then incubated at 37° C. for 15 minutes (CYP1A2), 30 minutes (CYP3A4 and CYP2C19) or 1.5 hours (CYP2C9). After completion of the reaction, the reactants were transferred to the white plates, and fluorescent values were measured using a micro-plate reader (Excitation and absorption wavelengths of CYP1A2 and CYP2C19 were 410 nm and 460 nm, respectively; and excitation and absorption wavelengths of CYP2C9 and CYP3A4 were 409 nm and 530 nm, respectively).
(§5) The measured values were converted into the inhibition percent of the test materials as compared to the value of the untreated control, and the results were summarized in Table 5.

CYP2C9 = molecular target: T2, CYP2C9 (Homo sapiens, UniProt P11712); experiment: CYP inhibition assay (BD GENTEST kit); format: in vitro ADME; conditions: for inhibition at 1.5 h, 10 µM: human, CYP2C9 enzyme/substrate mixture of BD GENTEST kit, pH 7.4, 10 μM, read-out: CYP inhibition (% at 10 μM) 2C9
T2 construct: purchased BD GENTEST 459300
Excerpt: as §3, §4, §5

CYP3A4 = molecular target: T3, CYP3A4 (Homo sapiens, UniProt P08684); experiment: CYP inhibition assay (BD GENTEST kit); format: in vitro ADME; conditions: human, CYP3A4 enzyme/substrate mixture of BD GENTEST kit, pH 7.4, 10 μM; read-out: CYP inhibition (% at 10 μM) 3A4
T3 construct: purchased BD GENTEST 459500
Excerpt: as §3, §4, §5

CYP2D6 = molecular target: T4, CYP2D6 (Homo sapiens, UniProt P10635); experiment: CYP inhibition assay (Invitrogen P2862 kit); format: in vitro ADME; conditions: for inhibition at 1 h, 10 µM: human, CYP2D6 P450 BACULOSOMES (Invitrogen P2862 kit), probe Vivid CYP450 substrate, read-out: CYP inhibition (% at 10 μM) 2D6
T4 construct: purchased Invitrogen P2862
Excerpt: as §3
P450 BACULOSOMES® reagent and regeneration device (100×) provided by the Invitrogen kit were diluted in the Vivid® reaction buffer (2×) into the appropriate concentration for the type of CYP450. After mixing 80 μl of the 2.5× test material and 100 μl of the mixture of the diluted P450 BACULOSOMES® reagent in U-bottom 96-well plate, the resulting mixture was pre-incubated for 20 minutes. Vivid® CYP450 substrate and NADP+ (100×) were diluted in the Vivid® CYP450 reaction buffer (2×) into the appropriate concentration for the types of CYP450 and the substrates. After completion of the pre-incubation, 20/l of the substrate-NADP (nicotinamide adenine dinucleotide phosphate) mixture was added, and then incubated for 1 hour. After completion of the reaction, the reactants were transferred to the white plates, and fluorescence values were measured using a micro-plate reader (Excitation and absorption wavelengths of CYP2D6 were 400 nm and 502 nm, respectively).
as §5

[4] = molecular target: T5, G protein-coupled receptor 119 (GPR-119) (Mesocricetus auratus, UniProt A0A1U8CD06); experiment: cAMP activity in HIT-T15 cells (cAMP dynamic kit, FRET); format: cell-based, hamster
T5 construct: hamster-derived β-cells containing G protein-coupled receptor 119 (GPR-119), HIT-T15 cells; host or cells: HIT-T15 (hamster pancreatic β-cells)
T5 sequence (A0A1U8CD06 1-334): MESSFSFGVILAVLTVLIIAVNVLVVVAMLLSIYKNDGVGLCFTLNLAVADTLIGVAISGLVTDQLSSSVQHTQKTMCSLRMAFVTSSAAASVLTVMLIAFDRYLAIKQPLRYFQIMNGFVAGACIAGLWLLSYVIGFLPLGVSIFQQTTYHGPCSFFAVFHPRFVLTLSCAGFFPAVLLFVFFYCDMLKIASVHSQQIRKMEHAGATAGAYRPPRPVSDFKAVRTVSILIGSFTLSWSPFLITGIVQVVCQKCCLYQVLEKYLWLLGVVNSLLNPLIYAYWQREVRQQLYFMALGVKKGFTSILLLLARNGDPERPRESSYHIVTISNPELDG
Summary of the method: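 Hamster HIT-T15 cells (60,000/well) were treated next day with compound at six concentrations, 0.0032–10 μM, for 1 h at 37° C. Cells were then lysed and cAMP measured by competitive HTRF immunoassay (D2-cAMP, cryptate anti-cAMP). Activity was derived as the change in FRET signal relative to DMSO.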

CYP2C19 = molecular target: T6, CYP2C19 (Homo sapiens, UniProt P33261); experiment: CYP inhibition assay (BD GENTEST kit); format: in vitro ADME; conditions: human, CYP2C19 enzyme/substrate mixture of BD GENTEST kit, pH 7.4, 10 μM; read-out: CYP inhibition (% at 10 μM) 2C19
T6 construct: purchased BD GENTEST 459400
Excerpt: as §3, §4, §5

T2 sequence (P11712 whole entry): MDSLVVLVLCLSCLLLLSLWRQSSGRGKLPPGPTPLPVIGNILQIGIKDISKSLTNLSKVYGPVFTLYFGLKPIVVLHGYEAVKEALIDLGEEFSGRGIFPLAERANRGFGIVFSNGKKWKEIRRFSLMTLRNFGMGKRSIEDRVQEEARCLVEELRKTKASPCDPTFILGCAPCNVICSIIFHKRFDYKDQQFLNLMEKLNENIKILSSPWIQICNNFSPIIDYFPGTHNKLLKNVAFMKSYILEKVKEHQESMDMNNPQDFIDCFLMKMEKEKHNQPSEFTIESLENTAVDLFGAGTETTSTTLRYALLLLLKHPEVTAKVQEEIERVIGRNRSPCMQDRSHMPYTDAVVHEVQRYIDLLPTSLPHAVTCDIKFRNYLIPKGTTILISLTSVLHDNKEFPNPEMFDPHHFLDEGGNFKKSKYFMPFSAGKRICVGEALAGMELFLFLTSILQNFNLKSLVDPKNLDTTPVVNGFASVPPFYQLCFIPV
T3 sequence (P08684 whole entry): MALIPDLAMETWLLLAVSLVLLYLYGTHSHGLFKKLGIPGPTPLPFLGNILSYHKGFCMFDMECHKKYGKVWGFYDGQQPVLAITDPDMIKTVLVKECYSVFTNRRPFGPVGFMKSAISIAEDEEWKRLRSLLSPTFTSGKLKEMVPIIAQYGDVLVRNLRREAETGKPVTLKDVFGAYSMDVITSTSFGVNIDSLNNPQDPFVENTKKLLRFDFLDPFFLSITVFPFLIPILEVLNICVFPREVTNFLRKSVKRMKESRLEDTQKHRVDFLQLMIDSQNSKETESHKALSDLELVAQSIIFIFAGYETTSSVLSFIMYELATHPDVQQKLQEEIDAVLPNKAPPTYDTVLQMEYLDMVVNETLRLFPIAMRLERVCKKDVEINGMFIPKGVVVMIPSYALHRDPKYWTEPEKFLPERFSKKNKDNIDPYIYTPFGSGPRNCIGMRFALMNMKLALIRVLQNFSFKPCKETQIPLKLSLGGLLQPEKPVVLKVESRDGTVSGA
T4 sequence (P10635 whole entry): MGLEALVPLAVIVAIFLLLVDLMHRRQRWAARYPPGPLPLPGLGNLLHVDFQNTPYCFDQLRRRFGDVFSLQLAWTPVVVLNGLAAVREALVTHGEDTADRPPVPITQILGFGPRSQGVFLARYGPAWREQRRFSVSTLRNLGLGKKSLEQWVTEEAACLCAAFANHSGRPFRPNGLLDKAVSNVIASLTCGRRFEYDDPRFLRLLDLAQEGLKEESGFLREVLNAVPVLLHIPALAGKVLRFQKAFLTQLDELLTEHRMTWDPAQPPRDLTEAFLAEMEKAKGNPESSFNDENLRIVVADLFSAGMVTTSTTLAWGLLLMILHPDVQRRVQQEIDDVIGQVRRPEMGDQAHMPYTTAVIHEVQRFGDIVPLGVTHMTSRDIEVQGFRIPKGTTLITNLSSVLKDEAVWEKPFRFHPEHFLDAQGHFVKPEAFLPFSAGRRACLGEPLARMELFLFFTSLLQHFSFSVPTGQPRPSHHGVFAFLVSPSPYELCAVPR
T6 sequence (P33261 whole entry): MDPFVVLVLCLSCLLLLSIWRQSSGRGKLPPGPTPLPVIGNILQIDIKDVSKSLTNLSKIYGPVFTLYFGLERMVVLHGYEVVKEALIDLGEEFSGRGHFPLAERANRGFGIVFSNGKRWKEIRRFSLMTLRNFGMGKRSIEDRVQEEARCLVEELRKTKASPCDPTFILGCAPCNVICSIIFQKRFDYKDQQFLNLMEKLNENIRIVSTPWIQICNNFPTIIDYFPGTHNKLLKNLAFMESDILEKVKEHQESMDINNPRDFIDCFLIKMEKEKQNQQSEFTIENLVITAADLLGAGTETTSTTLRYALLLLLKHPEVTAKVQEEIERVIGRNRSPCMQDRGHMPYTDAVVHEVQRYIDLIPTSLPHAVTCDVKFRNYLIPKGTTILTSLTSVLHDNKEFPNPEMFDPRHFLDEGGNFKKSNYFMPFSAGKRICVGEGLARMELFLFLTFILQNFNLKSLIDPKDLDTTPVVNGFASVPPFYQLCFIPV

Structure (SMILES)	inhibition at 15 min, 10 µM (CYP1A2) [%]	inhibition at 1.5 h, 10 µM (CYP2C9) [%]	inhibition at 30 min, 10 µM (CYP3A4) [%]	inhibition at 1 h, 10 µM (CYP2D6) [%]	inhibition at 30 min, 10 µM (CYP2C19) [%]	hypoglycemic effect [3] [%]	also measured
CN(C)C(=N)NC(=N)N [Comparative Example 3, Metformin]							changes in weights of rats (weight-loss effect) [1]: weight loss was observed for 2 weeks; also recorded: the weight rather increased after 2 weeks; hypoglycemic effect [2]: approximately 22%
CC(C)c1noc(N2CCC(COc3ccc(-c4ccc(S(C)(=O)=O)cc4)nc3)CC2)n1 [Comparative Example 2, 2-(4-methanesulfonylphenyl)-5-({1-[3-(propan-2-yl)-1,2,4-oxadiazol-5-yl]piperidin-4-yl}methoxy)pyridine]						15.3	
CC(C)c1noc(C2CCN(c3ncnc(Nc4ccc(S(C)(=O)=O)cc4F)c3[N+](=O)[O-])CC2)n1 [Comparative Example 1, N-(2-fluoro-4-methylsulfonylphenyl)-5-nitro-6-[4-(3-propan-2-yl-1,2,4-oxadiazol-5-yl)piperidin-1-yl]pyrimidine-4-amine, reference compound]	10.4	24.1	47.8	9.84		13.5	

Now from value to compound, other results behind:

inhibition at 15 min, 10 µM (CYP1A2) [%]	inhibition at 1.5 h, 10 µM (CYP2C9) [%]	inhibition at 30 min, 10 µM (CYP3A4) [%]	inhibition at 1 h, 10 µM (CYP2D6) [%]	inhibition at 30 min, 10 µM (CYP2C19) [%]	Structure (SMILES)	hypoglycemic effect [3] [%]	also measured
		33.1		44.9	CCc1cnc(N2CCC(COc3ccc(C4=CCC(C(=O)N5CCC[C@@H]5CO)CC4)cc3)CC2)nc1 (single isomer, unassigned; (+)) [Example 290]		EC50 ([4]; 1 hour at 37° C., six concentrations 0.0032 to 10 μM, read-out: EC50): 3.8 nM; EC50 ([4]; Table 2, read-out: EC50 value): ≤ 50 nM; CYP inhibition (% at 10 μM) 1A2 (CYP1A2; 10 μM): 3.82%; CYP inhibition (% at 10 μM) 2C9 (CYP2C9; 10 μM): 23.97%; CYP inhibition (% at 10 μM) 2D6 (CYP2D6; 10 µM): 48.97%
0	29.8	48.2	9.42	48.4	CCc1cnc(N2CCC(COc3ccc(C4=CCC(C(=O)N5CCC[C@@H]5CO)CC4)cc3)CC2)nc1 (stereo partly drawn) [Example 118, (4-(4-((1-(5-ethylpyrimidin-2-yl)piperidin-4-yl)methoxy)phenyl)cyclohex-3-enyl)((R)-2-(hydroxymethyl)pyrrolidin-1-yl)methanone]		
